Measured values reported in patent US9247741B2, “Use of macrocyclic picolinamides as fungicides” (DOW AGROSCIENCES LLC, priority 2013, dated 2016).

How the values were obtained:
[1] = system: Glomerella lagenarium; Anamorph: Colletotrichum lagenarium; test: Cucumber anthracnose (COLLLA) disease control; assay type: in vivo; settings: Colletotrichum orbiculare, 24 h, 1 Day Protectant, read-out: COLLLA disease control rating
Description: Technical grades of materials were dissolved in acetone, which were then mixed with nine volumes of water containing 110 ppm Triton X-100. The fungicide solutions were applied onto wheat seedlings using an automated booth sprayer to run-off. All sprayed plants were allowed to air dry prior to further handling. All fungicides were evaluated using the aforementioned method for their activity vs. all target diseases. Wheat leaf blotch and brown rust activity were also evaluated using track spray applications, in which case the fungicides were formulated as EC formulations, containing 0.1% Trycol 5941 in the spray solutions. Wheat plants (variety Yuma) were grown from seed in a greenhouse in 50% mineral soil/50% soil-less Metro mix until the first leaf was fully emerged, with 7-10 seedlings per pot. These plants were inoculated with an aqueous spore suspension of Septoria tritici either prior to or after fungicide treatments. After inoculation the plants were kept in 100% relative humidity (one day in a dark dew chamber followed by two to three days in a lighted dew chamber at 20° C.) to permit spores to germinate and infect the leaf. The plants were then transferred to a greenhouse set at 20° C. for disease to develop. When disease symptoms were fully expressed on the l^st leaves of untreated plants, infection levels were assessed on a scale of 0 to 100 percent disease severity. Percent disease control was calculated using the ratio of disease severity on treated plants relative to untreated plants. Evaluation of Fungicidal Activity: Cucumber Anthracnose (Glomerella lagenarium; Anamorph: Colletotrichum lagenarium; Bayer Code COLLLA) Cucumber seedlings (variety Bush Pickle) were propagated in soil-less Metro mix, with each pot having one plant, and used in the test when 12 to 14 days old. Test plants were inoculated with an aqueous spore suspension of Colletotrichum lagenarium 24 hr after fungicide treatments. After inoculation the plants were kept in a dew room at 22° C. with 100% relative humidity for 48 hr to permit spores to germinate and infect the leaf. The plants were then transferred to a growth room set at 22° C. for disease to develop. Fungicide formulation, application and disease assessment on the sprayed leaves followed the procedures as described in the Example A.

Venturia inaequalis = test: Apple scab (VENTIN) disease control; assay type: in vivo; settings: 1 Day Protectant, 100 ppm
Description: Technical grades of materials were dissolved in acetone, which were then mixed with nine volumes of water containing 110 ppm Triton X-100. The fungicide solutions were applied onto wheat seedlings using an automated booth sprayer to run-off. All sprayed plants were allowed to air dry prior to further handling. All fungicides were evaluated using the aforementioned method for their activity vs. all target diseases. Wheat leaf blotch and brown rust activity were also evaluated using track spray applications, in which case the fungicides were formulated as EC formulations, containing 0.1% Trycol 5941 in the spray solutions. Wheat plants (variety Yuma) were grown from seed in a greenhouse in 50% mineral soil/50% soil-less Metro mix until the first leaf was fully emerged, with 7-10 seedlings per pot. These plants were inoculated with an aqueous spore suspension of Septoria tritici either prior to or after fungicide treatments. After inoculation the plants were kept in 100% relative humidity (one day in a dark dew chamber followed by two to three days in a lighted dew chamber at 20° C.) to permit spores to germinate and infect the leaf. The plants were then transferred to a greenhouse set at 20° C. for disease to develop. When disease symptoms were fully expressed on the l^st leaves of untreated plants, infection levels were assessed on a scale of 0 to 100 percent disease severity. Percent disease control was calculated using the ratio of disease severity on treated plants relative to untreated plants. Evaluation of Fungicidal Activity: Apple Scab (Venturia inaequalis; Bayer code […]) Apple seedlings (variety McIntosh) were grown in soil-less Metro mix, with one plant per pot. Seedlings with two expanding young leaves at the top (older leaves at bottom of the plants were trimmed) were used in the test. Plants were inoculated with a spore suspension of Venturia inaequalis 24 hr after fungicide treatment and kept in a 22° C. dew chamber with 100% RH for 48 hr, and then moved to a greenhouse set at 20° C. for disease to develop. Fungicide formulation, application and disease assessment on the sprayed leaves followed the procedures as described in the Example A.

Phakopsora pachyrhizi = test: Asian soybean rust (PHAKPA) disease control; assay type: in vivo; settings: 25 ppm; for PHAKPA 1DP disease control rating: 1 Day Protectant; for PHAKPA 3DC disease control rating: 3 Day Curative
Description: Evaluation of Fungicidal Activity: Asian Soybean Rust (Phakopsora pachyrhizi; Bayer Code PHAKPA)
Technical grades of materials were dissolved in acetone, which were then mixed with nine volumes of water containing 0.011% Tween 20. The fungicide solutions were applied onto soybean seedlings using an automated booth sprayer to run-off. All sprayed plants were allowed to air dry prior to further handling.
Soybean plants (variety Williams 82) were grown in soil-less Metro mix, with one plant per pot. Two weeks old seedlings were used for testing. Plants were inoculated either 3 days prior to or 1 day after fungicide treatments. Plants were incubated for 24 h in a dark dew room at 22° C. and 100% RH then transferred to a growth room at 23° C. for disease to develop. Disease severity was assessed on the sprayed leaves.

Structure (SMILES)	melting point	pest or weed control at 100 ppm [1]	VENTIN disease control rating (Venturia inaequalis)	PHAKPA 1DP disease control rating (Phakopsora pachyrhizi)	PHAKPA 3DC disease control rating (Phakopsora pachyrhizi)
CCCO[C@H]1CCC[C@H](NC(=O)c2nccc(OC)c2OC(C)=O)C(=O)O[C@@H](C)[C@@H]1Cc1ccccc1 [Compound 70]	56 to 61 °C	> 70%	A (>70)	A (>70)	B (≦70)
COc1ccnc(C(=O)N[C@H]2CCC[C@H](OCC3CC3)[C@@H](Cc3ccc(F)cc3)[C@H](C)OC2=O)c1OCOC(C)=O [Compound 61]		> 70%			
CCCC[C@H]1[C@H](C)OC(=O)[C@@H](NC(=O)c2nccc(OC)c2OCOC(C)=O)CCC[C@@H]1OCC1CC1 [Compound 73]		> 70%			
COc1ccnc(C(=O)N[C@H]2CCC[C@H](Oc3ccccc3)[C@@H](CCC(C)C)[C@H](C)OC2=O)c1OC(C)=O [Compound 36]		> 70%	B (≦70)	A (>70)	B (≦70)
CCCO[C@H]1CCC[C@H](NC(=O)c2nccc(OC)c2OC(C)=O)C(=O)O[C@@H](C)[C@@H]1CCC(C)C [Compound 74, 2-(((3S,7S,8S,9S)-8-isopentyl-9-methyl-2-oxo-7-propoxyoxonan-3-yl)carbamoyl)-4-methoxypyridin-3-yl acetate]	46 to 50 °C	> 70%	A (>70)	A (>70)	B (≦70)
CCCC[C@H]1[C@H](C)OC(=O)[C@@H](NC(=O)c2nccc(OC)c2OCOC(C)=O)CCC[C@@H]1Oc1ccccc1 [Compound 33]		> 70%			
CCCO[C@H]1CCC[C@H](NC(=O)c2nccc(OC)c2OCOC(C)=O)C(=O)O[C@@H](C)[C@@H]1CCC(C)C [Compound 25, ((2-(((3S,7S,8S,9S)-8-isopentyl-9-methyl-2-oxo-7-propoxyoxonan-3-yl)carbamoyl)-4-methoxypyridin-3-yl)oxy)methyl acetate]		> 70%	A (>70)	A (>70)	B (≦70)
COc1ccnc(C(=O)N[C@H]2CCC[C@H](Oc3ccccc3)[C@@H](CCC(C)C)[C@H](C)OC2=O)c1OCOC(C)=O [Compound 40]	47 to 51 °C	> 70%	A (>70)	A (>70)	B (≦70)
